{
  "source": "patent US4122034A",
  "about": "“Antimicrobial compositions” (Schering Corporation, priority 1975, dated 1978)",
  "type_in_all_cases": "cell-based",
  "key": {"Enterococcus": {"test_system": "Enterococcus", "test": "In vitro antibacterial activity, dilution in Mueller Hinton Agar (Table I)", "experimental": "(§1) All the tests were carried out and (when necessary) scored under standard conditions. \"MIC\" means \"minimum inhibitory concentration.\"\n(§2) In vitro Antibacterial Activity of 2-aminoalkyl-3-phenyl-\n(§3) indoles of the formula I. Dilution in Mueller Hinton Agar pH 7.4"}, "Proteus mirabilis": {"test_system": "Proteus mirabilis", "test": "In vitro antibacterial activity, dilution in Mueller Hinton Agar (Table I)", "conditions": "Mueller Hinton Agar pH 7.4", "experimental": "as §1, §2, §3"}, "Staphylococcus aureus": {"test_system": "Staphylococcus aureus", "test": "In vitro antibacterial activity, dilution in Mueller Hinton Agar (Table I)", "conditions": "Mueller Hinton Agar pH 7.4", "experimental": "as §1, §2, §3"}, "Bacteroides corrodens": {"test_system": "Bacteroides corrodens", "test": "In vitro activity against anaerobes in fluid Thioglycollate medium (Table II)", "conditions": "Eikenella corrodens", "experimental": "as §1\n(§4) In vitro activity of 2-aminoalkyl-3-phenylindoles of the formula I\n(§5) against anaerobes in fluid Thioglycollate medium"}, "Bacteroides fragilis": {"test_system": "Bacteroides fragilis", "test": "In vitro activity against anaerobes in fluid Thioglycollate medium (Table II)", "experimental": "as §1, §4, §5"}, "[1]": {"test_system": "Bacteroides melaninogenicus", "test": "In vitro activity against anaerobes in fluid Thioglycollate medium (Table II)", "experimental": "as §1, §4, §5"}, "Clostridium histolyticum": {"test_system": "Clostridium histolyticum", "test": "In vitro activity against anaerobes in fluid Thioglycollate medium (Table II)", "conditions": "Hathewaya histolytica", "experimental": "as §1, §4, §5"}, "Clostridium novyi": {"test_system": "Clostridium novyi", "test": "In vitro activity against anaerobes in fluid Thioglycollate medium (Table II)", "experimental": "as §1, §4, §5"}, "Clostridium septicum": {"test_system": "Clostridium septicum", "test": "In vitro activity against anaerobes in fluid Thioglycollate medium (Table II)", "experimental": "as §1, §4, §5"}, "Eubacterium lentum": {"test_system": "Eubacterium lentum", "test": "In vitro activity against anaerobes in fluid Thioglycollate medium (Table II)", "conditions": "Eggerthella lenta", "experimental": "as §1, §4, §5"}, "Peptostreptococcus": {"test_system": "Peptostreptococcus", "test": "In vitro activity against anaerobes in fluid Thioglycollate medium (Table II)", "experimental": "as §1, §4, §5"}, "Candida albicans": {"test_system": "Candida albicans", "test": "In vitro Anti-Candida activity, dilutions in Sabouraud's Dextrose Agar (Table III)", "conditions": "48 h", "experimental": "as §1\nIn vitro Anti-Candida Activity of 2-aminoalkyl-3-phenyl-\nindoles of the formula I. Dilutions in Sabouraud's Dextrose\nMIC (mcg/ml) after 48 hours"}},
  "data": [
    {"smiles": "NCc1[nH]c2ccc(Cl)cc2c1-c1ccccc1", "note": "[C, 2-(1-aminomethyl)-5-chloro-3-phenylindole]", "values": [
      {"measurement": "MIC", "setting": "Enterococcus; pH 7.4, strain 373, Mueller Hinton Agar pH 7.4", "value": 7.5, "unit": "µg/mL"},
      {"measurement": "MIC", "setting": "Enterococcus; pH 7.4, strain 0928/72, Mueller Hinton Agar pH 7.4", "value": 7.5, "unit": "µg/mL"},
      {"measurement": "MIC", "setting": "Proteus mirabilis; pH 7.4, strain Hard", "value": 7.5, "unit": "µg/mL"},
      {"measurement": "MIC", "setting": "Proteus mirabilis; pH 7.4, strain Peras", "value": 7.5, "unit": "µg/mL"},
      {"measurement": "MIC", "setting": "Staphylococcus aureus; 209P, pH 7.4, strain 209P", "value": 7.5, "unit": "µg/mL"},
      {"measurement": "MIC", "setting": "Staphylococcus aureus; pH 7.4, strain 59N", "value": 7.5, "unit": "µg/mL"},
      {"measurement": "MIC", "setting": "Staphylococcus aureus; pH 7.4, strain Gray", "value": 7.5, "unit": "µg/mL"},
      {"measurement": "MIC", "setting": "Staphylococcus aureus; pH 7.4, strain Wood", "value": 7.5, "unit": "µg/mL"},
      {"measurement": "MIC", "setting": "Staphylococcus aureus; pH 7.4, strain Zeigler", "value": 3, "unit": "µg/mL"},
      {"measurement": "MIC", "setting": "Bacteroides corrodens; 48 hrs", "value": 3, "unit": "µg/mL"},
      {"measurement": "MIC", "setting": "Bacteroides corrodens; 72 hrs", "value": 3, "unit": "µg/mL"},
      {"measurement": "MIC", "setting": "Bacteroides fragilis; 48 hrs", "value": 3, "unit": "µg/mL"},
      {"measurement": "MIC", "setting": "Bacteroides fragilis; 72 hrs", "value": 3, "unit": "µg/mL"},
      {"measurement": "MIC", "setting": "[1]; 48 hrs", "value": 7.5, "unit": "µg/mL"},
      {"measurement": "MIC", "setting": "[1]; 72 hrs", "value": 7.5, "unit": "µg/mL"},
      {"measurement": "MIC", "setting": "Clostridium histolyticum; 48 hrs", "value": 3, "unit": "µg/mL"},
      {"measurement": "MIC", "setting": "Clostridium histolyticum; 72 hrs", "value": 3, "unit": "µg/mL"},
      {"measurement": "MIC", "setting": "Clostridium novyi; 48 hrs", "value": 3, "unit": "µg/mL"},
      {"measurement": "MIC", "setting": "Clostridium novyi; 72 hrs", "value": 3, "unit": "µg/mL"},
      {"measurement": "MIC", "setting": "Clostridium septicum; 48 hrs", "value": 3, "unit": "µg/mL"},
      {"measurement": "MIC", "setting": "Clostridium septicum; 72 hrs", "value": 3, "unit": "µg/mL"},
      {"measurement": "MIC", "setting": "Eubacterium lentum; 48 hrs", "value": 7.5, "unit": "µg/mL"},
      {"measurement": "MIC", "setting": "Eubacterium lentum; 72 hrs", "value": 7.5, "unit": "µg/mL"},
      {"measurement": "MIC", "setting": "Peptostreptococcus; 48 hrs", "value": 3, "unit": "µg/mL"},
      {"measurement": "MIC", "setting": "Peptostreptococcus; 72 hrs", "value": 3, "unit": "µg/mL"},
      {"measurement": "MIC", "setting": "Candida albicans; strain 1, after 48 hours", "value": 75, "unit": "µg/mL"},
      {"measurement": "MIC", "setting": "Candida albicans; strain 2, after 48 hours", "value": 75, "unit": "µg/mL"},
      {"measurement": "MIC", "setting": "Candida albicans; strain 3, after 48 hours", "value": 75, "unit": "µg/mL"},
      {"measurement": "MIC", "setting": "Candida albicans; strain 4, after 48 hours", "value": 37.5, "unit": "µg/mL"},
      {"measurement": "MIC", "setting": "Candida albicans; strain 5, after 48 hours", "value": 75, "unit": "µg/mL"},
      {"measurement": "MIC", "setting": "Candida albicans; strain 6, after 48 hours", "value": 75, "unit": "µg/mL"},
      {"measurement": "MIC", "setting": "Candida albicans; strain 8, after 48 hours", "value": 75, "unit": "µg/mL"},
      {"measurement": "MIC", "setting": "Candida albicans; strain 9, after 48 hours", "value": 75, "unit": "µg/mL"},
      {"measurement": "MIC", "setting": "Candida albicans; strain 29, after 48 hours", "value": 37.5, "unit": "µg/mL"},
      {"measurement": "MIC", "setting": "Candida albicans; strain Atkisson, after 48 hours", "value": 75, "unit": "µg/mL"},
      {"measurement": "MIC", "setting": "Candida albicans; strain Bertrand, after 48 hours", "value": 75, "unit": "µg/mL"},
      {"measurement": "MIC", "setting": "Candida albicans; strain Bevan, after 48 hours", "value": 75, "unit": "µg/mL"},
      {"measurement": "MIC", "setting": "Candida albicans; strain Blunden, after 48 hours", "value": 75, "unit": "µg/mL"},
      {"measurement": "MIC", "setting": "Candida albicans; strain Bognay, after 48 hours", "value": 75, "unit": "µg/mL"},
      {"measurement": "MIC", "setting": "Candida albicans; strain Boyer, after 48 hours", "value": 75, "unit": "µg/mL"},
      {"measurement": "MIC", "setting": "Candida albicans; strain Burke, after 48 hours", "value": 75, "unit": "µg/mL"},
      {"measurement": "MIC", "setting": "Candida albicans; strain Burnside, after 48 hours", "value": 75, "unit": "µg/mL"},
      {"measurement": "MIC", "setting": "Candida albicans; strain Collins, after 48 hours", "value": 75, "unit": "µg/mL"},
      {"measurement": "MIC", "setting": "Candida albicans; strain Fix, after 48 hours", "value": 75, "unit": "µg/mL"}
    ]}
  ]
}
